According to patent publication US5834453A, “Methods for the manufacture and use of antimicrobial sterol conjugates” (Lehigh University, priority 1997, dated 1998):
Values after ≈ are worked out from the molar mass of the structure shown. “Also recorded” adds a separate entry of the source. Where two headings read alike, the source gives them in different places.

Key:
Aspergillus fumigatus = assay: MIC against clinical isolates; format: cell-based; details: 24 h; clinical isolates of Aspergillus fumigatus
Method: (§1) The antimicrobial activity of the compounds according to the present invention were compared with the results obtained for squalamine as reported in Proc. Nat. Acad. Sci. USA 90:1354 (1993), supra, the disclosure of which is incorporated in toto herein. The data reported in the following table is the minimum inhibitory concentration (MIC) required for complete inhibition of microbial growth. The MIC was determined utilizing known micro-broth dilution methods in which inocula of 10^6 /ml of the test organism were incubated in 0.5× trypticase soy broth at 35° C. for 24 hours. MIC's were also tested under various pH conditions, with calcium chloride or magnesium chloride, or with immobilized horse serum.
(§2) The numbers in parentheses contained in the table correspond to accession numbers with the American Type Culture Collection (reference strains were either obtained from the American Type Culture Collection or from the Microbiology Laboratory at Memorial Sloan-Kettering Cancer Center; Bacterial strains were maintained on Columbia 5% sheep blood agar plates, and fungi were maintained on Sabouraud Dextrose agar plates).

Cryptococcus neoformans = assay: MIC against clinical isolates; format: cell-based; details: 24 h; clinical isolates of Cryptococcus neoformans
Method: as §1, §2

S. pneumoniae (6305) = assay: MIC, micro-broth dilution; format: cell-based; details: Streptococcus pneumoniae, 35° C., 24 hours, read-out: ANTIMICROBIAL ACTIVITY (MIC)
Method: as §1, §2

S. aureus (25923) = assay: MIC, micro-broth dilution; format: cell-based; details: Staphylococcus aureus, 35° C., 24 hours, read-out: ANTIMICROBIAL ACTIVITY (MIC)
Method: as §1, §2

E. cloacae (13047) = assay: MIC, micro-broth dilution; format: cell-based; details: Enterobacter cloacae, 35° C., 24 hours, read-out: ANTIMICROBIAL ACTIVITY (MIC)
Method: as §1, §2

A. fumigatus (H1120) = assay: MIC, micro-broth dilution; format: cell-based; details: Aspergillus fumigatus, 35° C., 24 hours, read-out: ANTIMICROBIAL ACTIVITY (MIC)
Method: as §1, §2

C. neoformans (M68979) = assay: MIC, micro-broth dilution; format: cell-based; details: Cryptococcus neoformans, 24 h, read-out: ANTIMICROBIAL ACTIVITY (MIC)
Method: as §1, §2

S. agalactiae (13813) = assay: MIC, micro-broth dilution; format: cell-based; details: Streptococcus agalactiae, 35° C., 24 hours, read-out: ANTIMICROBIAL ACTIVITY (MIC)
Method: as §1, §2

E. coli (25922) = assay: MIC, micro-broth dilution; format: cell-based; details: Escherichia coli, 35° C., 24 hours, read-out: ANTIMICROBIAL ACTIVITY (MIC)
Method: as §1, §2

P. vulgaris (13315) = assay: MIC, micro-broth dilution; format: cell-based; details: Proteus vulgaris, 35° C., 24 hours, read-out: ANTIMICROBIAL ACTIVITY (MIC)
Method: as §1, §2

P. aeruginosa (10145) = assay: MIC, micro-broth dilution; format: cell-based; details: Pseudomonas aeruginosa, 35° C., 24 hours, read-out: ANTIMICROBIAL ACTIVITY (MIC)
Method: as §1, §2

S. aureus (29213) = assay: MIC, micro-broth dilution; format: cell-based; details: Staphylococcus aureus, 24 h, read-out: ANTIMICROBIAL ACTIVITY (MIC)
Method: as §1, §2

E. faecalis (29212) = assay: MIC, micro-broth dilution; format: cell-based; details: Enterococcus faecalis, 35° C., 24 hours, read-out: ANTIMICROBIAL ACTIVITY (MIC)
Method: as §1, §2

C. albicans (90028) = assay: MIC, micro-broth dilution; format: cell-based; details: Candida albicans, 35° C., 24 hours, read-out: ANTIMICROBIAL ACTIVITY (MIC)
Method: as §1, §2

K. pneumoniae (13883) = assay: MIC, micro-broth dilution; format: cell-based; details: Klebsiella pneumoniae, read-out: ANTIMICROBIAL ACTIVITY (MIC)
Method: as §1, §2

E. faecium (T6480-9) = assay: MIC, micro-broth dilution; format: cell-based; details: Enterococcus faecium, 35° C., 24 hours, read-out: ANTIMICROBIAL ACTIVITY (MIC)
Method: as §1, §2

S. pyrogenes (19615) = assay: MIC, micro-broth dilution; format: cell-based; details: 24 h, read-out: ANTIMICROBIAL ACTIVITY (MIC)
Method: as §1, §2

S. epidermidis (12228) = assay: MIC, micro-broth dilution; format: cell-based; details: Staphylococcus epidermidis, 35° C., 24 hours, read-out: ANTIMICROBIAL ACTIVITY (MIC)
Method: as §1, §2

P. aeruginosa (2853) = assay: MIC, micro-broth dilution; format: cell-based; details: Pseudomonas aeruginosa, 24 h, read-out: ANTIMICROBIAL ACTIVITY (MIC)
Method: as §1, §2

S. marcescens (13880) = assay: MIC, micro-broth dilution; format: cell-based; details: for MIC: Serratia marcescens, 24 h, read-out: ANTIMICROBIAL ACTIVITY (MIC)
Method: as §1, §2

[1] = Hemolytic activity, minimal hemolytic concentration (MHC);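 as to MCC: MCC here is the minimal hemolytic concentration (MHC)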; format: cell-based, sheep; details: for minimal hemolytic concentration (MHC) at 24 h: sheep red blood cells, 24 hours at 37° C. in saline
Method: (§3) Hemolytic activity of the squalamine mimics according to the present invention were also studied by incubating sheep red blood cells for 24 hours at 37° C. in saline (final concentration of 0.5%) with or without respective concentrations of the squalamine mimics. The minimal hemolytic concentration (MHC) was determined as the lowest concentration of a mimic that raised visible hemolysis.

[2] = test system: various groups of microorganisms; assay: Antimicrobial activity (MIC), all microorganisms tested; format: cell-based
Method: as §1, §2

fungi = assay: Antimicrobial activity (MIC), fungi; format: cell-based; details: of all the mimics tested
Method: as §1

A. fumigatus (H29709) = assay: MIC, micro-broth dilution; format: cell-based; details: Aspergillus fumigatus, 35° C., 24 hours, read-out: ANTIMICROBIAL ACTIVITY (MIC)
Method: as §1, §2

S. aureus (H20809) = assay: MIC, micro-broth dilution; format: cell-based; details: Staphylococcus aureus, 24 h, read-out: ANTIMICROBIAL ACTIVITY (MIC)
Method: as §1, §2

C. neoformans (90012) = assay: MIC, micro-broth dilution; format: cell-based; details: Cryptococcus neoformans, 24 h, read-out: ANTIMICROBIAL ACTIVITY (MIC)
Method: as §1, §2

sheep red blood cells = assay: Hemolytic activity, minimal hemolytic concentration (MHC); format: cell-based;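 as to MCC: MCC here is the minimal hemolytic concentration (MHC)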
Method: as §3

gram positive cocci = assay: Antimicrobial activity (MIC), gram positive cocci; format: cell-based; details: of all the mimics tested
Method: as §1

| Structure (SMILES) | MIC (S. pneumoniae (6305)) [µg/mL] | MIC (S. aureus (25923)) [µg/mL] | MIC (E. cloacae (13047)) [µg/mL] | MIC (A. fumigatus (H1120)) [µg/mL] | MIC (C. neoformans (M68979)) [µg/mL] | MIC (S. agalactiae (13813)) [µg/mL] | MIC (E. coli (25922)) [µg/mL] | MIC (P. vulgaris (13315)) [µg/mL] | MIC (P. aeruginosa (10145)) [µg/mL] | MIC (S. aureus (29213)) [µg/mL] | MIC (E. faecalis (29212)) [µg/mL] | MIC (C. albicans (90028)) [µg/mL] | MIC (K. pneumoniae (13883); 24 h) [µg/mL] | MIC (E. faecium (T6480-9)) [µg/mL] | MIC (S. pyrogenes (19615)) [µg/mL] | MIC (S. epidermidis (12228)) [µg/mL] | MIC (P. aeruginosa (2853)) [µg/mL] | MIC (S. marcescens (13880)) [µg/mL] | minimal hemolytic concentration (MHC) at 24 h [1] [µg/mL] | antimicrobial activity (in words) [2] | other results |
| --- | --- | --- | --- | --- | --- | --- | --- | --- | --- | --- | --- | --- | --- | --- | --- | --- | --- | --- | --- | --- | --- |
| C[C@H](C(=O)NCCCNCCCCNCCCN)[C@H]1CC[C@H]2[C@@H]3CC=C4C[C@@H](OS(=O)(=O)O)CC[C@]4(C)[C@H]3CC[C@]12C [SM-2, 23,24-bisnor-3β-ol-5-cholenic acid 3-sulfate spermine conjugate] | > 100 | 12.5 (≈ 20.5 µM) | > 100 | 12.5 (≈ 20.5 µM) | 3.13 (≈ 5.12 µM) | > 100 | 6.25 (≈ 10.2 µM) | > 100 | 12.5 (≈ 20.5 µM) | > 100 | > 100 | 12.5 (≈ 20.5 µM) | 12.5 (≈ 20.5 µM) | > 100 | 6.25 (≈ 10.2 µM) | 3.13 (≈ 5.12 µM) | 3.13 (≈ 5.12 µM) | > 100 | > 100 |  | MIC (Aspergillus fumigatus): 12.5 µg/mL (≈ 20.5 µM); MIC (Cryptococcus neoformans): 3.13 µg/mL (≈ 5.12 µM) |
| C[C@H](CCC(=O)NCCCNCCCCNCCCN)[C@H]1CC[C@H]2[C@@H]3CC[C@@H]4C[C@H](O)CC[C@]4(C)[C@H]3CC[C@]12C [SM-25] | 3.13 (≈ 5.58 µM) | 0.78 (≈ 1.39 µM) | > 100 | 12.5 (≈ 22.3 µM) | 0.39 (≈ 0.695 µM) | 0.78 (≈ 1.39 µM) | 1.56 (≈ 2.78 µM) | 12.5 (≈ 22.3 µM) | 3.13 (≈ 5.58 µM) | 0.78 (≈ 1.39 µM) | 3.13 (≈ 5.58 µM) | 3.13 (≈ 5.58 µM) | > 100 | 3.13 (≈ 5.58 µM) | 0.78 (≈ 1.39 µM) | 0.39 (≈ 0.695 µM) | 0.78 (≈ 1.39 µM) | > 100 | 50 | highly active; also recorded: more activity than SM-8, SM-14, and SM-22 | potency ranking against fungi (fungi): most potent activity against gram positive cocci and fungi of all the mimics tested; MIC (A. fumigatus (H29709)): 12.5 µg/mL (≈ 22.3 µM); MIC (S. aureus (H20809)): 0.39 µg/mL (≈ 0.695 µM); MIC (C. neoformans (90012)): 0.39 µg/mL (≈ 0.695 µM); hemolytic activity (in words) (sheep red blood cells): unwanted hemolytic activity; potency ranking against gram positive cocci (gram positive cocci): most potent activity against gram positive cocci and fungi of all the mimics tested |
| C[C@H](CCC(=O)NCCCNCCCCNCCCN)[C@H]1CC[C@H]2[C@@H]3[C@H](O)C[C@@H]4C[C@H](O)CC[C@]4(C)[C@H]3CC[C@]12C [SM-34] | 3.13 (≈ 5.43 µM) | 0.78 (≈ 1.35 µM) | 12.5 (≈ 21.7 µM) | 12.5 (≈ 21.7 µM) | 3.13 (≈ 5.43 µM) | 1.56 (≈ 2.7 µM) | 3.13 (≈ 5.43 µM) | 12.5 (≈ 21.7 µM) | 25 (≈ 43.3 µM) | 1.56 (≈ 2.7 µM) | 3.13 (≈ 5.43 µM) | 3.13 (≈ 5.43 µM) |  | 6.25 (≈ 10.8 µM) | 0.78 (≈ 1.35 µM) | 0.78 (≈ 1.35 µM) | 12.5 (≈ 21.7 µM) | 12.5 (≈ 21.7 µM) |  | highly active | MIC (A. fumigatus (H29709)): 12.5 µg/mL (≈ 21.7 µM); MIC (S. aureus (H20809)): 1.56 µg/mL (≈ 2.7 µM); MIC (C. neoformans (90012)): 0.78 µg/mL (≈ 1.35 µM); MIC (K. pneumoniae (13883); K. pneumoniae (13883), 35° C., 24 hours): 8.25 µg/mL (≈ 14.3 µM); activity against S. marcescens (S. marcescens (13880); in words): found even against S. marcescens; also recorded: effective against S. marcescens; hemolytic activity (in words) (sheep red blood cells): unwanted hemolytic activity; MCC at 24 h ([1]; sheep, red blood cells): 25 µg/mL |
